This series is described as follows: recombinant UMI read abundance after kanamycin selection (control-corrected) (log10(CPM+1)); higher = more efficient recombination; extreme values may be limits of the assay; sequences stand for … in AGTGCAGAGAAAATCGGCCAGTTTTCTCTGCCTGCAGTCCGCATGCCGTGGGACCCCTTGGGTTCTAACCTGTTGCCTAGATTTATGCAGCGGACTGCCTTTCTCCCAAAGTGATAAACCGG…AGGTTGGTTTCACT; site = the 11-nt donor. Here is the method:
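Pooled E. coli donor-specificity screen for the IS621 bridge recombinase. Each library member carries a reprogrammed 11-nt donor and a full-length LE bridge RNA expressed in cis from the natural promoter, with a paired donor-binding loop (8-nt LDG + 4-nt RDG) and a target-binding loop fixed to T5. It is co-electroporated with a T5 target plasmid; recombinase is induced with 0.07 mM IPTG and recombinants are selected on kanamycin. UMIs are counted as CPM, averaged over two biological replicates and corrected by the unselected control. Molecule = full bridge RNA written as DNA, built from the T5 scaffold: LDG = donor specificity nt 1-8, RDG = reverse complement of nt 8-11.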
On to “AAGCACGCATGGACCGGTTTTCCCGGTAATCCGTATTTGGA (site AAGCACGCTCC)”, for which the “recombinant UMI read abundance (log10)” value is 0.0219.
For “AAGCACGCATGGACCGGTTTTCCCGGTAATCCGTATTTGGA (site AAGCACGCTGC)”, the “recombinant UMI read abundance (log10)” value came out at 0.
The figure for “AAGCACGCATGGACCGGTTTTCCCGGTAATCCGTATTTGGA (site AAGCACGCTTC)” is 0.817; for “AAGCACGCATGGACCGGTTTTCCCGGTAATCCGTATTTGGG (site AAACACGCTCC)” it is 0.00685; for “AAGCACGCATGGACCGGTTTTCCCGGTAATCCGTATTTGGG (site AACCACGCTCC)” it is 0.0266.
To “AAGCACGCATGGACCGGTTTTCCCGGTAATCCGTATTTGGG (site AAGAACGCTCC)” belongs 0.0117.
As to “AAGCACGCATGGACCGGTTTTCCCGGTAATCCGTATTTGGG (site AAGCAAGCTCC)”, the “recombinant UMI read abundance (log10)” value stood at 0.0142.
Regarding “AAGCACGCATGGACCGGTTTTCCCGGTAATCCGTATTTGGG (site AAGCACACTCC)”, the “recombinant UMI read abundance (log10)” value came out at 0.0106.
For “AAGCACGCATGGACCGGTTTTCCCGGTAATCCGTATTTGGG (site AAGCACCCTCC)”, the “recombinant UMI read abundance (log10)” value amounted to 0.
To “AAGCACGCATGGACCGGTTTTCCCGGTAATCCGTATTTGGG (site AAGCACGCTAC)” belongs 0.0125; to “AAGCACGCATGGACCGGTTTTCCCGGTAATCCGTATTTGGG (site AAGCACGCTCA)”, 0.0347; to “AAGCACGCATGGACCGGTTTTCCCGGTAATCCGTATTTGGG (site AAGCACGCTCC)”, 0.133.
Consider “AAGCACGCATGGACCGGTTTTCCCGGTAATCCGTATTTGGG (site AAGCACGCTCG)”, for which the “recombinant UMI read abundance (log10)” value was found to be 0.00834.
Regarding “AAGCACGCATGGACCGGTTTTCCCGGTAATCCGTATTTGGG (site AAGCACGCTCT)”, the “recombinant UMI read abundance (log10)” value came out at 0.265.
In the case of “AAGCACGCATGGACCGGTTTTCCCGGTAATCCGTATTTGGG (site AAGCACGCTGC)”, the “recombinant UMI read abundance (log10)” value was found to be 0.
To “AAGCACGCATGGACCGGTTTTCCCGGTAATCCGTATTTGGG (site AAGCACGCTTC)” belongs 0.012; to “AAGCACGCATGGACCGGTTTTCCCGGTAATCCGTATTTGGG (site AAGCACTCTCC)”, 0.0617; to “AAGCACGCATGGACCGGTTTTCCCGGTAATCCGTATTTGGG (site AAGCAGGCTCC)”, 0.0132.
For “AAGCACGCATGGACCGGTTTTCCCGGTAATCCGTATTTGGG (site AAGCATGCTCC)”, the “recombinant UMI read abundance (log10)” value came to 0.0182.
Consider “AAGCACGCATGGACCGGTTTTCCCGGTAATCCGTATTTGGG (site AAGCCCGCTCC)”, for which the “recombinant UMI read abundance (log10)” value amounted to 0.0231.
As for “AAGCACGCATGGACCGGTTTTCCCGGTAATCCGTATTTGGG (site AAGCGCGCTCC)”, the “recombinant UMI read abundance (log10)” value amounted to 0.0213.
To “AAGCACGCATGGACCGGTTTTCCCGGTAATCCGTATTTGGG (site AAGCTCGCTCC)” belongs 0.0309; to “AAGCACGCATGGACCGGTTTTCCCGGTAATCCGTATTTGGG (site AAGGACGCTCC)”, 0.00889; to “AAGCACGCATGGACCGGTTTTCCCGGTAATCCGTATTTGGG (site AAGTACGCTCC)”, 0.0168.
With “AAGCACGCATGGACCGGTTTTCCCGGTAATCCGTATTTGGG (site AATCACGCTCC)”, the “recombinant UMI read abundance (log10)” value came to 0.0177.
Regarding “AAGCACGCATGGACCGGTTTTCCCGGTAATCCGTATTTGGG (site ACGCACGCTCC)”, the “recombinant UMI read abundance (log10)” value came out at 0.0214.
Take “AAGCACGCATGGACCGGTTTTCCCGGTAATCCGTATTTGGG (site AGGCACGCTCC)”: the “recombinant UMI read abundance (log10)” value was 0.0204.
With “AAGCACGCATGGACCGGTTTTCCCGGTAATCCGTATTTGGG (site ATGCACGCTCC)”, the “recombinant UMI read abundance (log10)” value is 0.0113.
The figure for “AAGCACGCATGGACCGGTTTTCCCGGTAATCCGTATTTGGG (site CAGCACGCTCC)” is 0.00873; for “AAGCACGCATGGACCGGTTTTCCCGGTAATCCGTATTTGGG (site GAGCACGCTCC)” it is 0.0379.
The figure for “AAGCACGCATGGACCGGTTTTCCCGGTAATCCGTATTTGGG (site TAGCACGCTCC)” is 0.0044.
With “AAGCGGTCATGGACCGGTTTTCCCGGTAATCCGTATTTGTT (site AAGCGGTCTAA)”, the “recombinant UMI read abundance (log10)” value amounted to 1.4.
For “AAGGATACATGGACCGGTTTTCCCGGTAATCCGTATTTGCC (site AAGGATACTGG)”, the “recombinant UMI read abundance (log10)” value was determined as 2.67.
For the sequence “AAGGCCCCATGGACCGGTTTTCCCGGTAATCCGTATTTGGT (site AAGGCCCCTAC)”, the “recombinant UMI read abundance (log10)” value was 0.395.
Take “AAGGGATCATGGACCGGTTTTCCCGGTAATCCGTATTTGTT (site AAGGGATCTAA)”: the “recombinant UMI read abundance (log10)” value is 2.95.
For the sequence “AAGGGCTCATGGACCGGTTTTCCCGGTAATCCGTATTTGGC (site AAGGGCTCTGC)”, the “recombinant UMI read abundance (log10)” value is 3.63.
As to “AAGTAGACATGGACCGGTTTTCCCGGTAATCCGTATTTGCA (site AAGTAGACTTG)”, the “recombinant UMI read abundance (log10)” value was found to be 2.72.
To “AAGTAGACATGGACCGGTTTTCCCGGTAATCCGTATTTGCA (site AGGAAGACTTG)” belongs 0.52.
To “AAGTCGACATGGACCGGTTTTCCCGGTAATCCGTATTTGAA (site AAGTCGACTTT)” belongs 0.435.
Turning to “AAGTCGCCATGGACCGGTTTTCCCGGTAATCCGTATTTGGT (site AAGTCGCCTAC)”, the “recombinant UMI read abundance (log10)” value came out at 0.0178.
Turning to “AAGTGTGCATGGACCGGTTTTCCCGGTAATCCGTATTTGTC (site AAGTGTGCTGA)”, the “recombinant UMI read abundance (log10)” value came out at 2.99.
In the case of “AAGTTGTCATGGACCGGTTTTCCCGGTAATCCGTATTTGTC (site AAGTTGTCTGA)”, the “recombinant UMI read abundance (log10)” value was found to be 2.09.
“AATAAAGCATGGACCGGTTTTCCCGGTAATCCGTATTTGGC (site AATAAAGCTGC)”: the “recombinant UMI read abundance (log10)” value stood at 1.32.
In the case of “AATAAGACATGGACCGGTTTTCCCGGTAATCCGTATTTGCA (site AATAAGACTTG)”, the “recombinant UMI read abundance (log10)” value stood at 2.17.
In the case of “AATAAGACATGGACCGGTTTTCCCGGTAATCCGTATTTGCA (site AGGAAGACTTG)”, the “recombinant UMI read abundance (log10)” value stood at 1.4.
As for “AATACTTCATGGACCGGTTTTCCCGGTAATCCGTATTTGAG (site AATACTTCTCT)”, the “recombinant UMI read abundance (log10)” value amounted to 1.6.
Regarding “AATAGTACATGGACCGGTTTTCCCGGTAATCCGTATTTGTC (site AATAGTACTGA)”, the “recombinant UMI read abundance (log10)” value came to 1.89.
For “AATAGTGCATGGACCGGTTTTCCCGGTAATCCGTATTTGCC (site AATAGTGCTGG)”, the “recombinant UMI read abundance (log10)” value was found to be 1.5.
As for “AATATGGCATGGACCGGTTTTCCCGGTAATCCGTATTTGCG (site AATATGGCTCG)”, the “recombinant UMI read abundance (log10)” value is 1.22.
On to “AATCAATCATGGACCGGTTTTCCCGGTAATCCGTATTTGCC (site AATCAATCTGG)”, for which the “recombinant UMI read abundance (log10)” value was 1.98.
With “AATCACGCATGGACCGGTTTTCCCGGTAATCCGTATTTGGG (site AAACACGCTCC)”, the “recombinant UMI read abundance (log10)” value turned out to be 0.0181.
With “AATCACGCATGGACCGGTTTTCCCGGTAATCCGTATTTGGG (site AACCACGCTCC)”, the “recombinant UMI read abundance (log10)” value worked out at 0.0334.
Turning to “AATCACGCATGGACCGGTTTTCCCGGTAATCCGTATTTGGG (site AAGCACGCTCC)”, the “recombinant UMI read abundance (log10)” value worked out at 0.0135.
Take “AATCACGCATGGACCGGTTTTCCCGGTAATCCGTATTTGGG (site AATCACGCTCC)”: the “recombinant UMI read abundance (log10)” value is 0.0109.
The figure for “AATCCATCATGGACCGGTTTTCCCGGTAATCCGTATTTGAT (site AATCCATCTAT)” is 0.288; for “AATCGAACATGGACCGGTTTTCCCGGTAATCCGTATTTGTC (site AATCGAACTGA)” it is 0.559; for “AATCGGACATGGACCGGTTTTCCCGGTAATCCGTATTTGAT (site AATCGGACTAT)” it is 1.01.
The figure for “AATCTCTCATGGACCGGTTTTCCCGGTAATCCGTATTTGGC (site AATCTCTCTGC)” is 2.62.
On to “AATCTTGCATGGACCGGTTTTCCCGGTAATCCGTATTTGTC (site AATCTTGCTGA)”, for which the “recombinant UMI read abundance (log10)” value was 1.07.
As for “AATGACCCATGGACCGGTTTTCCCGGTAATCCGTATTTGTT (site AATGACCCTAA)”, the “recombinant UMI read abundance (log10)” value stood at 0.0112.
The figure for “AATGACTCATGGACCGGTTTTCCCGGTAATCCGTATTTGAG (site AATGACTCTCT)” is 2.08.
For the sequence “AATGACTCATGGACCGGTTTTCCCGGTAATCCGTATTTGGT (site AATGACTCTAC)”, the “recombinant UMI read abundance (log10)” value came out at 2.1.
In the case of “AATGCAACATGGACCGGTTTTCCCGGTAATCCGTATTTGTG (site AATGCAACTCA)”, the “recombinant UMI read abundance (log10)” value is 0.302.
For the sequence “AATGCACCATGGACCGGTTTTCCCGGTAATCCGTATTTGTG (site AATGCACCTCA)”, the “recombinant UMI read abundance (log10)” value is 0.0217.
As for “AATGCAGCATGGACCGGTTTTCCCGGTAATCCGTATTTGAA (site AATGCAGCTTT)”, the “recombinant UMI read abundance (log10)” value amounted to 0.709.

(Values after the supplement of paper PMC11208160.)
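Also: IS621 bridge recombinase in Escherichia coli cells against a fixed T5 target plasmid.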
